The values below come from paper PMC11311998, “AR71, Histamine H3 Receptor Ligand—In Vitro and In Vivo Evaluation (Anti-Inflammatory Activity, Metabolic Stability, Toxicity, and Analgesic Action)” (International Journal of Molecular Sciences, 2024).

Several values for one entry are separate records, joined by “and”; a condition that tells them apart may be missing. Equal values may be shown once. Read-outs that look alike come from different tables or passages of the source. Some results are limits rather than exact numbers.

Series [1] concerns CCI-exposed mice. As to the kind of experiment: cold plate test in CCI neuropathic pain model. It is filed as in vivo, mouse. How it is done:
(§1) The effects of a single intraperitoneal (i.p.) injection of AR71 at doses of 5, 10, and 20 mg/kg on mechanical (von Frey test) and thermal (cold plate and tail flick tests) stimulus were evaluated on day 14 following sciatic nerve injury (Figure 15). There were seven to eight animals per group. All these tests were performed in three time series after the administration of the compound. In the case of the von Frey test—after 30, 90, and 180 min; the cold plate test—after 35, 95, and 185 min; and the tail flick test—after 40, 100, and 190 min.
The mice were randomly divided into four experimental groups. […] All data from behavioural tests were analysed using a one-way ANOVA with Bonferroni’s multiple comparison post hoc test. […]
The cold plate test (performed by the Cold/Hot Plate Analgesia Meter, Columbus Instruments, N. Hague Ave, Columbus, OH, USA) was used to assess sensitivity to noxious thermal stimuli. […] The mice were placed on a cold plate, and the time it took to lift the injured paw was recorded.

The subject of series [2] is human peripheral blood mononuclear cells (PBMCs). As to the kind of experiment: PBMC viability (resazurin reduction assay). The class given is cell-based. Particulars: for IC50: Homo sapiens, PBMC, read-out: IC50 PBM Cells. How it is done: PBMCs were isolated from a leucocyte-buffy coat collected from the blood of healthy non-smoking donors from the Blood Bank in Lodz, Poland. They included lymphocytes, monocytes, and other white blood cells with a round nucleus. A portion of the leucocyte-buffy coat was diluted in 1% phosphate buffer saline (PBS). Then, it was centrifuged in a density gradient of Lymphosep (Cytogen, Zgierz, Poland) at 200× g for 20 min at room temperature. Next, the cells were collected and washed thrice in 1% PBS. The supernatant was poured off, and the pellet of the cells was resuspended in RPMI 1640 medium (Lonza, Basel, Switzerland). The study protocol was approved by the Committee for Research on Human Subjects of the University of Lodz, Poland (17/KBBN-UŁ/III/2019).
The resazurin reduction assay was performed similarly to that previously described by O’Brien et al.. Resazurin salt powder was dissolved in sterile PBS. The cells were seeded on 96-well plates in 5 × 10^4 for PBMCs per well. AR71 was added to the wells to achieve final concentrations of 0.78, 1.56, 3.125, 6.25, 12.5, 25, 50, and 100 µM. In the next step, the plates were incubated at 37 °C in 5% CO2 for 2 h, 24 h, 48 h, and 72 h. Then, 10 µL of resazurin salt was added to each well, and the plates were incubated again at 37 °C in 5% CO2 for 2 h. Next, fluorescence was measured with microplate reader BioTek Synergy HT (Agilent Technologies, Inc., Santa Clara, CA, USA) using an excitation wavelength of 530/25 nm and an emission wavelength of 590/35 nm.
The viability of PBMCs was estimated after 2, 24, 48, and 72 h of incubation with AR71. The viability of individual samples was calculated relative to the negative control (NC, untreated cells), which was taken as 100%. The positive control was PBMCs incubated with 0.1% DMSO (vehicle, Veh). The results represented the means with SEMs of six independent experiments and were expressed as a percentage of untreated control cells. The values were plotted against all used concentrations of AR71 to calculate the viability inhibition concentration at 50% (IC50) using GraphPad Prism 6.07 (GraphPad Software, Inc., San Diego, CA, USA).
(Alamar Blue is a resazurin reagent that responds to reducing activity.)

The subject of a further series is BV-2 cells. Further details: method as in PMID 36370200. The following applies: LPS-treated BV-2 cells; cited from earlier work.
Series [3] deals with CCI-exposed mice. As to the kind of experiment: von Frey test in CCI neuropathic pain model. The class given is in vivo, mouse. How it is done: as §1
(§2) The mice were randomly divided into four experimental groups. One group received a vehicle treatment (10% DMSO/10%(2-Hydroxypropyl)-β-cyclodextrin/water for injection, i.p.), while the other three groups were administered with AR71 at doses of 5, 10, or 20 mg/kg of body weight (b.w.), i.p. Baseline measurements for all tests were conducted before the compounds were injected, and the results are presented as percentages of the maximal possible effect (% MPE). […] All data from behavioural tests were analysed using a one-way ANOVA with Bonferroni’s multiple comparison post hoc test.
The model of chronic constriction injury (CCI) to the sciatic nerve was established according to Bennett and Xie. The surgical method was performed under isoflurate anaesthesia (2% isoflurane in 100% oxygen with a flow of 1.5 L/min). Below the right hipbone, a small incision was performed, and three ligatures (4/0 silk) around the sciatic nerve were made (with 1 mm spacing) until a brief twitch in the respective hind limb was observed. The CCI procedure leads to hypersensitivity to mechanical and thermal stimuli. Behavioural tests were performed on day 14 after the injury. AR71 was dissolved in 10% DMSO/10% (2-Hydroxypropyl)-β-cyclodextrin/water for injection and was given i.p. at doses of 5, 10, and 20 mg/kg of body weight (injection volume 10 mL/kg of bw). The control group received the vehicle (10% DMSO/10% (2-Hydroxypropyl)-β-cyclodextrin/water for injection).
Behavioural experiments were performed between 8:00 a.m. and 2:00 p.m. […]

In a further series the target is human H3R. More on the design: method as in PMID 36370200. Particulars: cited from earlier work.
For the next series, the target named is hH1R. More on the design: method as in PMID 36370200. The following applies: cited from earlier work.
The test system of series [4] is CCI-exposed mice. As to the kind of experiment: CCI neuropathic pain model, all behavioural tests and observation. It is filed as in vivo, mouse. How it is done:
as §1, §2
Assessment of the analgesic activity of AR71 was performed using a mouse experimental model of chronic constriction injury of the sciatic nerve, by three tests including the von Frey test, the cold plate test, and the tail flick test. […]

Regarding `COc1cc(/C=C/C(=O)c2ccc(OCCCN3CCCCC3)cc2)cc(OC)c1OC` [AR71, (E)-3-(3,4,5-trimethoxyphenyl)-1-(4-(3-(piperidin-1-yl)propoxy)phenyl)prop-2-en-1-one], the “effect in cold plate test vs control” value with CCI-exposed mice [1] (5, 10 and 20 mg/kg i.p., 35 min (5 mg/kg p < 0.05; 10 and 20 mg/kg p < 0.001)) is given as “Analgesic effects”; in the series on CCI-exposed mice [1] (95 and 185 min after injection, 10 and 20 mg/kg i.p.), “only the two higher doses were effective”. The “decrease in the number of PBMCs” value in series [2] (100 µM, regardless of incubation time (2-72 h)) is recorded as 80–98%; in series [2] (6.25–50 µM, 2 h), ≤ 20%. Besides, the “cytotoxic effect on PBMCs” value in series [2] (0.78, 1.56 and 3.125 µM, 2 h) is listed as “did not cause a cytotoxic effect”. Also, the IC50 in series [2] (2 h incubation) stood at 71 µM; in series [2] (24 h incubation), 21 µM; in series [2] (48 h incubation), 7.48 µM; in series [2] (72 h incubation), 4.53 µM. Moreover, the “effect on proinflammatory cytokines (IL-1β, IL-6, TNF-α), mRNA and protein level” value with BV-2 cells is “reduced the level of proinflammatory cytokines”. For the same molecule, the “effect in von Frey test vs vehicle” value is on record as “significant pain-relieving effects” in the series on CCI-exposed mice [3] (10 mg/kg i.p., 30 min after injection, p < 0.05); “increased withdrawal thresholds” in the series with CCI-exposed mice [3] (20 mg/kg i.p., 90 and 180 min after injection (p < 0.001 and p < 0.01), lower doses not effective); “significant pain-relieving effects” in the series on CCI-exposed mice [3] (20 mg/kg i.p., 30 min after injection, p < 0.001). In addition, the Ki is 24 nM on human H3R; 2700 nM and > 2500 nM at hH1R. The “sedative, locomotor or gastrointestinal effects” value with CCI-exposed mice [4] (5, 10, 20 mg/kg i.p.) was “no sedative, locomotor, or gastrointestinal effects”. For the same molecule, in the series with CCI-exposed mice [4] (single i.p. injection, doses 5, 10, 20 mg/kg, day 14 after CCI), the “dose with the highest analgesic effects” value worked out at 20 mg/kg.

A word on the IC50: it is the concentration that gives 50% inhibition. As a reminder, the Ki is a measure of affinity in units of concentration, obtained from inhibition or displacement.
